2 molecules from ChEMBL document CHEMBL6092212, “Discovery of novel substituted (Z)-N'-hydroxy-3-(3-phenylureido)benzimidamide derivatives as multifunctional molecules targeting pathological hallmarks of Alzheimer's disease” (Eur J Med Chem, 2024) can be followed below.

Calls of active or inactive are those of the source. The calls are words filed in the database; no cut-off is given here.

Series [1] deals with T1, Acetylcholinesterase (Homo sapiens, UniProt P22303). Kind of series: Inhibition of AChE (unknown origin).
The target in series [2] is T2, Cholinesterase (Homo sapiens, UniProt P06276). Kind of series: Inhibition of BChE (unknown origin).
For another series, the system named is PC-12. The experiment in a line: Cytotoxicity against rat PC-12 cells upto 20 uM incubated for 24 hrs by MTT assay. It is filed as toxicity, cell-based. The settings on record: pc-12, 24 h. (Tetrazolium dyes change colour on reduction, which living cells bring about.)
For series [3], the system named is HMC3. Kind of series: Inhibition of mitochondrial impairment in LPS/ATP-induced human HMC3 cells at 12.5 uM incubated for 24 hrs by Rhodamine 123/JC-1 staining based analysis. It counts as functional, cell-based.
Series [4] has as its system HMC3. The experiment in a line: Antiinflammatory activity against LPS/ATP-induced human HMC3 cells assessed as reduction in nuclear translocation of NF-kappaB at 12.5 uM by immunocytochemistry based analysis. It counts as functional, cell-based.
Series [5] is described as follows: Acute toxicity in Swiss albino mouse assessed as animal survival at 2000 mg/kg, po measured 14 days post-administration. It counts as organism-based. The conditions noted are these: in vivo, 336 h, time 14 day.
In series [6] the target is T2, Cholinesterase. The experiment in a line: Inhibition of human BChE using BTCI as substrate preincubated for 30 mins followed by substrate addition measured after 30 mins by Ellman's method. In general terms: DTNB colorimetry detects thiols as they appear.
Series [7] concerns HMC3. Kind of series: Antiinflammatory activity against LPS/ATP-induced human HMC3 cells assessed as reduction in IL-18 level at 12.5 uM by Western blot analysis. It counts as functional, cell-based.
Series [8] deals with Mus musculus. The experiment in a line: Neuroprotective activity against scopolamine-induced cognitive deficit Swiss albino mouse model assessed as increase in PSD95 mRNA level at 10 mg/kg, ip measured after 14 days by RT-PCR analysis. It is filed as functional, organism-based. The settings on record: time 14.0 day.
The subject of series [9] is Mus musculus. Kind of series: Neuroprotective activity against scopolamine-induced cognitive deficit Swiss albino mouse model assessed as increase in c-FOS mRNA level at 10 mg/kg, ip measured after 14 days by RT-PCR analysis. It counts as functional, organism-based. The conditions noted are these: time 14.0 day.
Series [10] concerns Mus musculus. Kind of series: Neuroprotective activity against scopolamine-induced cognitive deficit Swiss albino mouse model assessed as increase in GAP43 mRNA level at 10 mg/kg, ip measured after 14 days by RT-PCR analysis. It counts as functional, organism-based. The conditions noted are these: time 14.0 day.
For series [11], the system named is Mus musculus. Kind of series: Reversal of scopolamine-induced cognitive deficit Swiss albino mouse model assessed as reduction in distance traveled to reach platform at 10 mg/kg, ip measured after 5 days by Morris water maze test. It is filed as functional, organism-based. The conditions noted are these: time 5.0 day.
In series [12] the test system is HMC3. Kind of series: Antiinflammatory activity against LPS/ATP-induced human HMC3 cells assessed as reduction in NLRP3 level at 12.5 uM by Western blot analysis. It is filed as functional, cell-based. Background: A western blot detects proteins with antibodies after separation by electrophoresis.
Series [13] is described as follows: Antioxidant activity assessed as inhibition of DPPH radical scavenging activity incubated for 30 mins by absorbance based analysis. It is filed as functional.
The test system of series [14] is HMC3. The experiment in a line: Inhibition of LPS/ATP-induced cytotoxicity against human HMC3 cells at 12.5 uM incubated for 24 hrs by MTT assay. It is filed as functional, cell-based.
Series [15] concerns Mus musculus. The experiment in a line: Neuroprotective activity against scopolamine-induced cognitive deficit Swiss albino mouse model assessed as increase in TRKB mRNA level at 10 mg/kg, ip measured after 14 days by RT-PCR analysis. It counts as functional, organism-based. The conditions noted are these: time 14.0 day.
Series [16] in a line: Induction of NO release upto 100 uM incubated for 5 to 10 mins by Griess assay. The conditions noted are these: time 5-10 min. It is filed as functional.
Series [17] deals with Mus musculus. Kind of series: Reversal of scopolamine-induced cognitive deficit Swiss albino mouse model assessed as increase in number of entries in target quadrant at 10 mg/kg, ip measured after 5 days by Morris water maze test. It is filed as functional, organism-based. The conditions noted are these: time 5.0 day.
Series [18] addresses T1, Acetylcholinesterase. The experiment in a line: Inhibition of human AChE using ATCI as substrate preincubated for 30 mins followed by substrate addition measured after 30 mins by Ellman's method.
Series [19] is described as follows: Acute toxicity in Swiss albino mouse assessed as signs of tremor at 2000 mg/kg, po measured 14 days post-administration. It is filed as organism-based. The settings on record: in vivo, 336 h, time 14 day.
For series [20], the system named is HMC3. The experiment in a line: Antiinflammatory activity against LPS/ATP-induced human HMC3 cells assessed as reduction in IL-1beta level at 12.5 uM by Western blot analysis. It counts as functional, cell-based.
The test system of series [21] is HMC3. Kind of series: Antiinflammatory activity against LPS/ATP-induced human HMC3 cells assessed as reduction in NF-kappaB level at 12.5 uM by immunocytochemistry based analysis. It counts as functional, cell-based.
In series [22] the test system is HMC3. The experiment in a line: Antiinflammatory activity against LPS/ATP-induced human HMC3 cells assessed as decrease in Iba-1 level at 12.5 uM by Western blot analysis. It is filed as functional, cell-based.
Series [23] is described as follows: Permeability of compound in PBS at pH 7.4 at 500 uM by PAMPA. It counts as ADME. The conditions noted are these: read-out: permeability.
Series [24] concerns Mus musculus. The experiment in a line: Neuroprotective activity against scopolamine-induced cognitive deficit Swiss albino mouse model assessed as increase in Nr4a2 mRNA level at 10 mg/kg, ip measured after 14 days by RT-PCR analysis. It is filed as functional, organism-based. The settings on record: time 14.0 day.
The test system of series [25] is HMC3. Kind of series: Antiinflammatory activity against LPS/ATP-induced human HMC3 cells assessed as increase in Nrf2 level at 12.5 uM by Western blot analysis. It is filed as functional, cell-based.
The nature of series [26]: Acute toxicity in Swiss albino mouse assessed as signs of convulsion at 2000 mg/kg, po measured 14 days post-administration. It is filed as organism-based. The settings on record: in vivo, 336 h, time 14 day.
In series [27] the test system is HMC3. Kind of series: Antiinflammatory activity against LPS/ATP-induced human HMC3 cells assessed as reduction in caspase-1 level at 12.5 uM by Western blot analysis. It is filed as functional, cell-based.
Series [28] has as its system Mus musculus. The experiment in a line: Neuroprotective activity against scopolamine-induced cognitive deficit Swiss albino mouse model assessed as increase in BDNF mRNA level at 10 mg/kg, ip measured after 14 days by RT-PCR analysis. It is filed as functional, organism-based. The conditions noted are these: time 14.0 day.
For series [29], the system named is HMC3. The experiment in a line: Antiinflammatory activity against LPS/ATP-induced human HMC3 cells assessed as reduction in NLRP3 level at 12.5 uM by immunocytochemistry based analysis. It is filed as functional, cell-based.
The subject of series [30] is Mus musculus. Kind of series: Reversal of scopolamine-induced cognitive deficit Swiss albino mouse model assessed as increase in time in platform quadrant at 10 mg/kg, ip measured after 5 days by Morris water maze test. It counts as functional, organism-based. The settings on record: time 5.0 day.
For series [31], the target named is Cholinesterase (Equus caballus) (UniProt P81908). The experiment in a line: Competitive inhibition of equine BChE using BTCI as substrate at 1 to 10 uM preincubated for 30 mins followed by substrate addition by Ellman's method. The conditions noted are these: dose 1-10 µM.
Series [32] deals with Cholinesterase (Equus caballus, UniProt P81908). Kind of series: Inhibition of equine BChE using BTCI as substrate preincubated for 30 mins followed by substrate addition measured after 30 mins by Ellman's method.
Series [33] has as its target Amyloid-beta precursor protein (Homo sapiens) (UniProt P05067). The experiment in a line: Inhibition of self-mediated Amyloid beta (1 to 42)(unknown origin) aggregation at 3.125 uM incubated for 3 days by ThT assay. The conditions noted are these: time 3.0 day.
Series [34] can be described thus: Metal chelating activity assessed as compound-Fe3+ complex formation at 600 uM incubated for 24 hrs by UV spectrophotometry.
For series [35], the system named is Mus musculus. The experiment in a line: Neuroprotective activity against scopolamine-induced cognitive deficit Swiss albino mouse model assessed as increase in PKA mRNA level at 10 mg/kg, ip measured after 14 days by RT-PCR analysis. It is filed as functional, organism-based. The settings on record: time 14.0 day.
The nature of series [36]: Acute toxicity in Swiss albino mouse assessed as signs of diarrhea at 2000 mg/kg, po measured 14 days post-administration. It counts as organism-based. The settings on record: in vivo, 336 h, time 14 day.
For series [37], the system named is HMC3. The experiment in a line: Inhibition of ROS production in LPS/ATP-induced human HMC3 cells at 12.5 uM incubated for 24 hrs by MitoSOX Red FM staining based analysis. It counts as functional, cell-based.
Series [38] deals with Mus musculus. Kind of series: Neuroprotective activity against scopolamine-induced cognitive deficit Swiss albino mouse model assessed as increase in CREB1 mRNA level at 10 mg/kg, ip measured after 14 days by RT-PCR analysis. It counts as functional, organism-based. The settings on record: time 14.0 day.
Series [39] has as its target T1, Acetylcholinesterase. The experiment in a line: Mixed inhibition of human AChE using ATCI as substrate at 0.1 to 5 uM preincubated for 30 mins followed by substrate addition by Ellman's method. The conditions noted are these: dose 0.1-5 µM.
Series [40] has as its system HMC3. The experiment in a line: Induction of mitochondrial membrane potential stability in LPS/ATP-induced human HMC3 cells at 12.5 uM incubated for 24 hrs by Rhodamine 123/JC-1 staining based analysis. It is filed as functional, cell-based.
A short description of series [41]: Antioxidant activity assessed as DPPH radical scavenging activity at 20 to 200 uM incubated for 30 mins by absorbance based analysis relative to control. It is filed as functional. The conditions noted are these: dose 20-200 µM.
The nature of series [42]: Acute toxicity in Swiss albino mouse assessed as signs of over-weight gain at 2000 mg/kg, po measured 14 days post-administration. It is filed as organism-based. The conditions noted are these: in vivo, 336 h, time 14 day.
A short description of series [43]: Acute toxicity in Swiss albino mouse assessed as signs of abnormal behaviour at 2000 mg/kg, po measured 14 days post-administration. It counts as organism-based. The settings on record: in vivo, 336 h, time 14 day.
The test system of series [44] is Mus musculus. The experiment in a line: Reversal of scopolamine-induced cognitive deficit Swiss albino mouse model assessed as decrease in escape latency at 10 mg/kg, ip measured for 5 days by Morris water maze test. It counts as functional, organism-based. The conditions noted are these: time 5.0 day.
Series [45] has as its system HMC3. Kind of series: Antiinflammatory activity against LPS/ATP-induced human HMC3 cells assessed as increase in vimentin level at 12.5 uM by immunocytochemistry based analysis. It is filed as functional, cell-based.
Series [46] has as its system Mus musculus. Kind of series: Protection against scopolamine-associated dementia in Swiss albino mouse model assessed as increase in latency period at 10 mg/kg, ip measured after 14 days by Passive avoidance task method. It is filed as functional, organism-based. The settings on record: time 14.0 day.
The target in series [47] is Microtubule-associated protein tau (Homo sapiens) (UniProt P10636). Kind of series: Inhibition of Tau (unknown origin) aggregation at 1.125 uM incubated for 3 days by ThT assay. The settings on record: time 3.0 day.
Chain of Microtubule-associated protein tau (Homo sapiens) (P10636 whole entry): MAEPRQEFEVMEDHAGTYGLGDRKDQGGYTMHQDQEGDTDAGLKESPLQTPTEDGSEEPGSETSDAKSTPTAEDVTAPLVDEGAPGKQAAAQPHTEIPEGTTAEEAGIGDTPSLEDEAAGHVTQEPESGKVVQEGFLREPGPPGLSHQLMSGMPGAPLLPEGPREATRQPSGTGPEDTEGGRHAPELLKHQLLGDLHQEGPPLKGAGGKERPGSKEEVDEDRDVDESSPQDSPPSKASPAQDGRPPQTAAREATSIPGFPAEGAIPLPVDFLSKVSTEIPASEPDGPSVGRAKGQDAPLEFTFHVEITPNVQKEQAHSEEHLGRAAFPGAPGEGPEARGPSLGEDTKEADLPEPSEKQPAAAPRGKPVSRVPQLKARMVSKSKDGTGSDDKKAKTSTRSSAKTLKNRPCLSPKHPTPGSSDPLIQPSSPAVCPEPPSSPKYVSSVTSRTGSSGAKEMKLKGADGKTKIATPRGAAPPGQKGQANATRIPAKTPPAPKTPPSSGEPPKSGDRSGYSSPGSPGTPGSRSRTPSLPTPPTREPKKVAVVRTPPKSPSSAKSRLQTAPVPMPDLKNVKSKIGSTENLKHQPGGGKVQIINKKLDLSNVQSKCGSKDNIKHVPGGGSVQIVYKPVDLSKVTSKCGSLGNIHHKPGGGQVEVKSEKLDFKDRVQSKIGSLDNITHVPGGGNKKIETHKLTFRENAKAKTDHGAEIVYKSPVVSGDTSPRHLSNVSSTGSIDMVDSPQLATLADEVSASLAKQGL

T1 sequence (P22303 whole entry): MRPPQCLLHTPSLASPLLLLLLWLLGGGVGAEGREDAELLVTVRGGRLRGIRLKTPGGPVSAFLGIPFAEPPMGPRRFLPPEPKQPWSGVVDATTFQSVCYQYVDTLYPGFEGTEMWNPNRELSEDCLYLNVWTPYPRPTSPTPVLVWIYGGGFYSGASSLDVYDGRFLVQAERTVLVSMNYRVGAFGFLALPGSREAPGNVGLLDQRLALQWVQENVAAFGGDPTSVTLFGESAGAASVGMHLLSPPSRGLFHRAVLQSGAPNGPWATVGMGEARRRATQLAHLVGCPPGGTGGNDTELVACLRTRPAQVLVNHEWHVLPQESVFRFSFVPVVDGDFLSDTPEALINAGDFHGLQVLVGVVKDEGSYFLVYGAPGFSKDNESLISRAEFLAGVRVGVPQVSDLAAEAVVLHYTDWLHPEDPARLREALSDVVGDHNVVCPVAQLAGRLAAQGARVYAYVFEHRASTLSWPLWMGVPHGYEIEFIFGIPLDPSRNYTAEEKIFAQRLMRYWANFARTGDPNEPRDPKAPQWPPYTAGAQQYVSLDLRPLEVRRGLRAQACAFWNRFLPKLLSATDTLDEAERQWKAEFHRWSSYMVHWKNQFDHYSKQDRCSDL
T2 sequence (P06276 whole entry): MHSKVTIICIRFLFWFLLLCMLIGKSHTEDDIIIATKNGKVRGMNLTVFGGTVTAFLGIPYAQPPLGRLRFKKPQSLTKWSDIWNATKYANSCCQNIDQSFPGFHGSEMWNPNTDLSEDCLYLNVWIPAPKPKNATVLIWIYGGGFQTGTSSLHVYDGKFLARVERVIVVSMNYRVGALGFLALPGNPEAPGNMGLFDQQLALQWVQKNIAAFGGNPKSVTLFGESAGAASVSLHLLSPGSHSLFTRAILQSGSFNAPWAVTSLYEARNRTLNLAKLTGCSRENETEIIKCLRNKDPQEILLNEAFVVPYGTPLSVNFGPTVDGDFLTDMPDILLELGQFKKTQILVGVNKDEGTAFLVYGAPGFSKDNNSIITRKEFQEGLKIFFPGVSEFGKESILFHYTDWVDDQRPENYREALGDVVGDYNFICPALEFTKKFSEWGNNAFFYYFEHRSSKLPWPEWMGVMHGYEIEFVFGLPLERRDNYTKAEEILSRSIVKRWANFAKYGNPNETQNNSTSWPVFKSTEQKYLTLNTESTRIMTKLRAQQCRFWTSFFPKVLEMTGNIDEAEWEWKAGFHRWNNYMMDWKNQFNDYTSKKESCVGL
Chain of Amyloid-beta precursor protein (Homo sapiens) (P05067 whole entry): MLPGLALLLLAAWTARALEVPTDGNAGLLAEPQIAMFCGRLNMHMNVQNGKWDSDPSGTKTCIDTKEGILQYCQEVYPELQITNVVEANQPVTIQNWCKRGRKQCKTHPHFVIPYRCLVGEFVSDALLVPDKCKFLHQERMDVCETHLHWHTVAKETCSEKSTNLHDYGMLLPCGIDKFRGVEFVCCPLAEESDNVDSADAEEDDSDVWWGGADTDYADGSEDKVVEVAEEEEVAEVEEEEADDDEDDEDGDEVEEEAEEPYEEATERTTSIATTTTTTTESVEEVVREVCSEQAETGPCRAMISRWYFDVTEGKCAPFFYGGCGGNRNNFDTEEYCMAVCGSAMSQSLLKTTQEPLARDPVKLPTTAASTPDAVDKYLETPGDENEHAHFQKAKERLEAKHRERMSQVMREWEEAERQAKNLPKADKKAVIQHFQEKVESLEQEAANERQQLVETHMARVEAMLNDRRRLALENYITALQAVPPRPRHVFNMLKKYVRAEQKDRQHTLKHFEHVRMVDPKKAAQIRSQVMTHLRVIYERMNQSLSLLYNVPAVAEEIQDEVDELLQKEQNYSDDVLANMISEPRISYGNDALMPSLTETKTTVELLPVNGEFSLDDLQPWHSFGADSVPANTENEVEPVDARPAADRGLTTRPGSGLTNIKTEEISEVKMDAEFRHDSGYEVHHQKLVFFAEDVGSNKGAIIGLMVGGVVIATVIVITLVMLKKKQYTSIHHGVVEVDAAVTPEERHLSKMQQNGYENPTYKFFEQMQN
Chain of Cholinesterase (Equus caballus) (P81908 whole entry): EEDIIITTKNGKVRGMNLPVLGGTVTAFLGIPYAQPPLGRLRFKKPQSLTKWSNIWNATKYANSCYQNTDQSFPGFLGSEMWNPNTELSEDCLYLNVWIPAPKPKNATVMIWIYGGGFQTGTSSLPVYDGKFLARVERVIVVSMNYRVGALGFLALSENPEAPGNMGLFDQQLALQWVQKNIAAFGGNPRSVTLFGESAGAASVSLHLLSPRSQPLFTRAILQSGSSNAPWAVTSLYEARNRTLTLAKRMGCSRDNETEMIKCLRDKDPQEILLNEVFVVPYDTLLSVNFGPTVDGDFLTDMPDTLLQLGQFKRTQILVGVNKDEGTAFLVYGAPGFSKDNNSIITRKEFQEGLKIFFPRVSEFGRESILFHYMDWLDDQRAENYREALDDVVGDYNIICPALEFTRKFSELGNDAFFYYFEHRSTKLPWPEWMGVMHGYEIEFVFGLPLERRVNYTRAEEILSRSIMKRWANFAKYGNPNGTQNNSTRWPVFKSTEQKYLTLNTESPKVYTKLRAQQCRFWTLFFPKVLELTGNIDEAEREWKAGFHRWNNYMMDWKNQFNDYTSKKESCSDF
Chain of Cholinesterase (Equus caballus, UniProt P81908) (P81908 whole entry): as above

As for `COc1cc(/C=C/C(=O)NCC(=O)NCCc2c[nH]c3ccccc23)ccc1O`, the IC50 came to 960 nM against Acetylcholinesterase [1] and 1230 nM against Cholinesterase [2].
As for `COc1ccc2[nH]cc(CCNC(=O)Nc3cccc(/C(N)=N/O)c3)c2c1`, the Activity entry was “Non-toxic” with PC-12; “Non-toxic” in [5]; “Non-toxic” in series [19]; “Non-toxic” in series [26]; “Non-toxic” in series [36]; 47.3% in series [41]. Moreover, the Activity entry in series [42] and in [43] was “Non-toxic” in each case. The inhibition entry (in the series with HMC3 [3]; in the series on HMC3 [14]; in [31]; in series [33]; in the series with HMC3 [37]; at Acetylcholinesterase [39]) was “Active” in each case. For the same molecule, the inhibition entry in series [47] is “Active”. Also, the result in the series on HMC3 [4], in the series on HMC3 [7], in the series on Mus musculus [8], with Mus musculus [9], with Mus musculus [10] and with Mus musculus [11] was Active. The outcome in the series with HMC3 [12], in the series on Mus musculus [15], in the series with Mus musculus [17], in the series with HMC3 [20], in the series with HMC3 [21] and with HMC3 [22] was Active. The outcome in the series on Mus musculus [24], with HMC3 [25], in the series with HMC3 [27], in the series on Mus musculus [28], with HMC3 [29] and in the series on Mus musculus [30] was Active. Also, the result in the series with Mus musculus [35], in the series with Mus musculus [38], with HMC3 [40], with Mus musculus [44], with HMC3 [45] and in the series on Mus musculus [46] was Active. In addition, the half-inhibitory concentration (IC50) against Cholinesterase [6] is 1010 nM; in [13], 15200 nM; against Acetylcholinesterase [18], 910 nM; on Cholinesterase [32], 1190 nM. The outcome in [16] and in series [34] was inactive. For the same molecule, the Papp at 500 µM in [23] amounted to 12.3 ×10⁻⁶ cm/s.

As a reminder, the IC50 is the point on the concentration scale where inhibition reaches its midpoint.
